Test results taken from patent US20260097091A1, “ADMINISTRATION OF GLUTATHIONE TRISULFIDE TO AMELIORATE PERIPHERAL NEUROPATHY” (The General Hospital Corporation, priority 2022, published 2026).

Columns and labels:
[1] = water solubility of PTN-SSS; format: physicochemical
Description: (§1) PTN-SSS was synthesized and provided by Kyowa Hakko Bio Co., Ltd. The purity of PTN-SSS is 96.3%, and PTN-SSS is highly water soluble (>50 g/L). PTN-SSS and PTN (Toronto Research Chemicals, Toronto, ON, Canada) were suspended in distilled water. PTN-SSS is stable in solution at pH 4.0-9.0 at room temperature for at least 4 days. In the PTN-SSS study, distilled water was used as the vehicle alone.

primary DRG neurons = primary DRG neurons exposed to paclitaxel: Sholl analysis and axonal mitochondria (NF200, MitoTracker); format: cell-based, mice; details: 500 nM PTNSSS with 100 nM paclitaxel for one hour
Description: Primary DRG neurons were prepared from 8 to 10-week old mice as described previously. Briefly, lumber DRG (L1 to L6) were isolated from mice and centrifuged at 176×g (1000 rpm) for 3 minutes. After aspirating the solution, DRG were incubated with Dispase-II Solution (Sigma-Aldrich, Cat No. SCM133) and collagenase type II (Worthington, Cat No. LS004176) for 70 minutes and with 0.25% trypsin for 5 minutes. Subsequently triturated by frame polished glass pipet, neurons were seeded on a 12-well plate with 15 mm coverslip. Cells were incubated in Neurobasal A-medium with 2% B27 supplement (Gibco, Cat No. 10889038), 1% penicillin/streptomycin, 1% Glutamax (Gibco, Cat No. 35050061), and nerve growth factor (Sigma Aldrich, Cat No. N6009) for 24 hours. After 24 hours, they were exposed to 100 nM of paclitaxel with or without 500 nM of GSSSG or PTNSSS for one hour and 50 nM of MitoTracker (Invitrogen, Cat No. M22426) for 30 minutes. After fixing by 4% paraformaldehyde for 10 minutes at room temperature, cells were immersed in 0.2% Triton X-100 in PBS for 7 minutes and washed by PBS. They were incubated with anti-NF200 antibody (1:400, mouse, Sigma-Aldrich, Cat No. N0142) overnight at 4° C. and with the secondary antibody (1:1000, donkey anti-mouse, Abcam, Cat No. ab150105) for one hour at room temperature. After being covered with fluoroshield mounting medium with DAPI (Sigma-Aldrich, Cat No. F6057), 9-10 cells per group (3 mice per group) were imaged on confocal microscopy (ZEISS LSM 800, Carl Zeiss, Thornwood, NY) using a 63× oil immersion objectives lens with 1,024×1,024 pixels image size.
Effects of PTNSSS and GSSSG on axonal integrity were examined in cultured murine primary DRG neurons incubated with paclitaxel. […] Morphology of neurons, the number, length, and branching of neurites, was analyzed by Sholl analysis implemented in ImageJ [30]. Sholl analysis draws equally spaced circles from the soma and counts the number of intersections between neurites and circles to quantify neuronal morphology (FIG. 8C).

[2] = stability of PTN-SSS in solution; format: physicochemical; details: pH 4.0-9.0 at room temperature
Description: as §1

[3] = tissue distribution of orally administered ^34S-labeled GSSSG by LC-MS/MS; format: in vivo, mice; details: 2 hours after oral 50 mg/kg
Description: To determine the tissue distribution of orally-administered GSSSG, ^34S-labelled GSSSG was administered by gavage to each of four mice. ^34S-labelled GSSSG was synthesized and provided by Kyowa Hakko Bio CO., LTD. Two hours after a single dose of ^34S-GSSSG, DRG, lumber spinal cord, brain, liver, and plasma were obtained and snap frozen for later analysis.
We examined whether administrated GSSSG via oral gavage reaches peripheral nervous system using liquid chromatography with tandem mass spectrometry (LC-MS/MS). Fifty mg/kg of ^34S-labeled GSSSG (in which the middle sulfur, that is a sulfane sulfur, was replaced to ^34S; G-^32S-^34S-^32S-G) was orally administered to mice. Two hours after administration, plasma and tissue from liver, brain, lumbar spinal cord, and lumbar DRG (L1 to L6) were collected and immediately frozen at −80° C. Tissues were homogenized with 5 mM of β-(4-hydroxyphenyl)ethyl iodoacetamide (HPE-IAM) (Santa Cruz, Cat No. SC-473766) and incubated for 20 minutes at 37° C. to promote HPE-IAM reaction that stabilizes persulfide residues. Proteins were removed by centrifugation at 15,000 g for 10 minutes at 4° C., and total protein concentration was measured by BCA assay. The supernatant was diluted by 0.1% formic acid for LC-MS/MS analysis. The amount of ^34S-labeled GSSSG was quantified in selective reaction monitoring (SRM) with precursor ion (647.14 m/z), product ion (389.1 m/z), and HCD (21 v) and normalized by protein concentration. The ratio of ^34S-labeled reactive sulfur species to endogenous (^32S) reactive sulfur species (GSSH, CysSSH, and CysSSSCys) were also calculated from their peak area measured by Dionex UltiMate 3000 RS UPLC-Orbitrap Exploris 480 mass spectrometer (Thermo Scientific Scientific, Waltham, MA, USA). In brief, samples were subjected to the UPLC system with a Hypersil Gold C-18 (100×2.1 mm, 3.0 μm, Thermo Fisher Scientific) column and they were eluted by using a linear methanol gradient of the mobile phase (0-90%, 15 minutes) in the presence of 0.1% formic acid at a flow rate of 0.2 ml/minutes at 40 degrees. The raw data were obtained by Compound Discoverer software 3.3. Molecular weight of reactive sulfur species combined with HPE-IAM were reported in previous studies.

water solubility [1] [mg/mL]	stable in solution [2]	ratio of ^34S-labelled CysSSH to endogenous CysSSH ([3]; all 4 tissues)	ratio of ^34S-labelled CysSSSCys to endogenous CysSSSCys ([3]; all 4 tissues)	ratio of ^34S-labelled GSSH to endogenous GSSH ([3]; all 4 tissues (lumber DRG, lumber spinal cord, brain, liver))	average concentration of ^34S-labelled GSSSG in brain ([3]; mice) [pmol/mg protein]	average concentration of ^34S-labelled GSSSG in liver ([3]; mice) [pmol/mg protein]	average concentration of ^34S-labelled GSSSG in lumber DRG ([3]; mice) [pmol/mg protein]	average concentration of ^34S-labelled GSSSG in lumber spinal cord ([3]; mice) [pmol/mg protein]	Structure (SMILES)	axonal length (Sholl analysis) (primary DRG neurons)
> 50	at least 4 days	–	–	–	–	–	–	–	CC(C)(CO)[C@@H](O)C(=O)NCCC(=O)NCCSSSCCNC(=O)CCNC(=O)[C@H](O)C(C)(C)CO [PTN-SSS, pantethine trisulfide]	prevented the axonal shortening induced by paclitaxel
–	–	more than 10 fold	more than 10 fold	more than 10 fold	142	158	415	518	N[C@@H](CCC(=O)N[C@@H](CS[34S]SC[C@H](NC(=O)CC[C@H](N)C(=O)O)C(=O)NCC(=O)O)C(=O)NCC(=O)O)C(=O)O [^34S-labelled GSSSG]	–
